# Results from patent US20160228444A1, “NUCLEOSIDE ANALOGS AND USES THEREOF” (Ramot at Tel-Aviv University Ltd., priority 2015, published 2016).
# Legend:
# [1] = tested on: HDACs of classes I and II; experiment: HDAC activity in intact cells (Fluor de Lys kit); assay type: cell-based, human; conditions: both U251 and Daudi cells, 2 h, FIG. 1B
# Experimental: U251 or Daudi cells seeded in 96-well plates (10^4 cells/well, in quadruplicates) in growth medium for 24 h were then treated as indicated for 2 h in the presence of the HDAC substrate (Fluor de Lys™). The reaction was terminated by the addition of the Fluor de Lys™ developer (Biomol Research Labs) and […] trichostatin A (TSA). All of the above reagents were included in a kit for measuring activities of HDACs of classes I and II (AK-503, Biomol Research Labs). The percentage inhibition was calculated from the ratio of the fluorescence (measured at 355 nm excitation and at 460 nm emission) in the drug treated compared with the untreated control culture.
# [2] = tested on: U251 human glioblastoma xenograft; experiment: Glioblastoma xenograft model (survival, body weight, tumor volume, tumor weight, Ki-67); conditions: for tumor volume of vehicle-treated group relative to treated group: from day 11, FIG. 3C
# Experimental: Xenograft of glioblastoma: 8- to 10-week-old male Hsd athymic FOXN (Harlan, Jerusalem, Israel) were inoculated sc in the flanks with 5×10^6 U251 cells. Tumor length (L) and width (W) were measured with a caliper twice weekly. Tumor volumes were calculated according to the formula: (L×W2)/2. When the tumor was established (volume of 50-100 mm^3) the mice were randomly divided into six groups treated with: vehicle control (saline); ip Dox 4 mg/kg once weekly; po AN446 25 mg/kg thrice a week; po AN7 50 mg/kg thrice a week; combination of AN446+Dox (4 mg/kg ip Dox once a week and 25 mg/kg po AN446 thrice a week); AN7+Dox (4 mg/kg ip Dox once a week and 50 mg/kg po AN7 thrice weekly). Untreated, non-bearing tumor naive mice were maintained under the same conditions. The experiment was terminated after 25 treatment days, the mice were sacrificed under CO2 and their tumors and hearts were removed, weighed and divided into parts dedicated for immunohistochemistry (IHC) and the rest were frozen (−80° C.) for Western blot and Quantitative PCR (qRT-PCR) analyses.
# Inactivation of avidin-biotin nonspecific binding was prevented by a blocking kit, according to the manufacturer's protocol (Vector Laboratories). […] The secondary antibody was biotin conjugated goat anti-rabbit or anti-mouse IgG. Slides were then stained with the ABC peroxidase system, developed with diaminobenzidine (DAB) (Vector Laboratories) and counterstained with hematoxylin (Bio-Optica, Milano, Italy). The slides were examined using an Olympus BX 52 light microscope, and images were taken with an Olympus DP50 digital camera system.
# Mice were implanted subcutaneously with U251 cells and when the tumors reached 50-100 mm^3 treatments were initiated. Survival was evaluated by the Kaplan-Meier end-product analysis, where treatment failure (the experimental end points) was a loss of ˜20% body weight, or a tumor volume of >1 cm^3.
compound,measurement,setting,value
"CCCC(CCC)C(=O)Nc1nc2c(ncn2COCCOC(=O)C(CCC)CCC)c(=O)[nH]1 [AN446, N-valproyl-9-(2-valproyloxy)ethoxymethyl-guanine]",potency as HDAC inhibitor relative to AN7,[1],2-3 fold
same,survival of mice when added to Dox treatment,"[2]; added to Dox 4 mg/kg ip once a week, day 25, FIG. 3A",80%
same,body weight loss when added to Dox treatment,"[2]; added to Dox 4 mg/kg, FIG. 3B",significant attenuation of body weight loss
same,Ki-67 positive (proliferating) cells in tumors,"[2]; in combination with Dox, FIG. 3F",reduced the proliferating cells to a level significantly lower than any of the single drug treatments
same,tumor volume of vehicle-treated group relative to treated group,[2]; in combination with Dox,3 fold
same,Ki-67 positive cells in tumors,"[2]; single agent vs vehicle, FIGS. 3E, 3F",considerably more Ki-67 positive cells were detected in tumors of the vehicle-treated mice
same,tumor volume of vehicle-treated group relative to treated group,[2]; single agent,2 fold
same,survival of mice until end of experiment (day 25),"[2]; single agent: AN446 25 mg/kg or AN7 50 mg/kg po thrice weekly, Dox 4 mg/kg ip once a week, FIG. 3A",100%
